# “And” between values parts separate entries of the source, which are not always exact repeats. Equal entries are not always repeated. Where two headings read alike, the source gives them in different places.
# Assays:
# [1] = test system: CPPs; assay: DLS of CPP hydrodynamic diameter in human serum; parameters: Dh: unit not given here
# Procedure: To confirm the screening assay data, the hydrodynamic diameter of the CPPs was measured by dynamic light scattering (DLS).
# Human serum studies were performed under sterile conditions at 37 °C as described previously. […] For serum background measurements, saline, human serum, and 100 mM HBS (pH 7.4 (RT)) were combined in a volume ratio of 2:8:10. […] The mixtures were incubated with continual slow mixing on a rotator (240 rotations/min, IKA KS 130 Basics Orbital Shaker) at 37 °C. After 1, 3, and 5 h of incubation, 500 µL aliquots were drawn under sterile conditions to prevent microorganism growth contamination and subjected to DLS analysis at 37 °C. For each experiment, three replicates were produced and a single measurement per sample and time point was performed.
# [2] = PK in healthy rats, i.v. bolus; format: in vivo, male Sprague-Dawley rats; settings: for Clobs / plasma concentration / Cmax / AUC(0-t) / MRT: 10 mg/kg i.v.; for half-life / Cmax / Vd / AUC(0-t) / MRT: Sprague-Dawley, rat, iv; for half-life: healthy male rats; for Cmax / Vd / AUC(0-t) / MRT: male; for Vd: read-out: apparent volume of distribution; for MRT: read-out: mean residence time (MRT) (converted)
# Procedure: All PK studies in healthy animals were performed by the contract research organization Aphad S.r.l. (Milan, Italy). In all studies, compounds were administered as a salt, and the doses and plasma quantitation refer to the acid form. PK parameters listed in Supplementary Table 13 were derived from measured plasma concentrations applying noncompartmental analysis. Concentration data were extrapolated using the software Analyst™ 6.1 (Applied Biosystems, Foster City, CA, USA), the area under the plasma concentration vs. time curve (AUC) was calculated by linear trapezoidal rule using PK solver 2.0 add-in for Microsoft Excel 2007 (available for download in[83]), and a uniform weight was performed as a first general approach.
# To study PK in healthy animals, male Sprague-Dawley rats (Harlan, Correzzana, Italy) were housed up to three per cage with free access to water and standard chow (pellets 12 mm, global diet 2018 certificate, Mucedola, Srl, Settimo Milanese, Italy), and submitted to a 12-h light/dark cycle. Animals were administered i.v. 10 mg/kg of (OEG2)2-IP4 in saline solution i.v. (30 s bolus, 5 mL/kg) and s.c. (5 mL/kg), respectively, in three animals per route and treatment. […] Plasma calcium concentration was determined in pre-dose samples and in t = 30 min samples of both acute and chronic treatments using the calcium colorimetric assay. Blood samples of 100 µL were drawn at several time points from the caudal vein, centrifuged at (3000 × g, 4 °C, 10 min) and stored at −80 °C until analysis by liquid chromatography–tandem mass spectrometry (LC-MS/MS).
# The column used for (OEG2)2-IP4 was Kinetex C8 50 × 2.1 mm, 2.6 μm 100 A (Phenomenex, Basel, Switzerland), thermostated at 35 °C. […] Quantitation was carried out as total ion current on the sum of the MRM transitions. […] Samples were agitated 5 min on a […] orbital shaker and centrifuged (16,000 × g, 5 °C, 20 min). […] Samples were then subjected to LC-MS/MS. Rat PK samples were prepared for analysis in an analogous manner as done for spiked samples. The lower limit of quantification (LLOQ) and detection (LOD) in rat plasma for (OEG2)2-IP4 were 25 and 10 ng/mL, respectively. The upper limit of quantification (ULOQ) and detection was 5000 ng/mL.
# [3] = Inhibition of calcium phosphate precipitation in serum-free buffer; format: physicochemical; settings: for inhibition of calcium phosphate precipitation, serum-free: 10 mM calcium, 6 mM phosphate, HBS pH 7.4, 90 min, 37 °C
# Text: calcification in organs other than these are available from the present study.
# We have included the latest research on CPPs and the respective literature now in the introduction (p. 4, line 74 ff.).
# The way I see it the compound stabilizes CPP1, which can be more easily cleared unless it occurs in very high amounts and cannot be cleared at all. Therefore it is important to measure renal mineral clearance ± compound (see comment for Fig 3)
# We have amended the discussion in the revised manuscript with respect to the hypothesis on the mechanism of action of (OEG2)2-IP4 postulated by the reviewer. (p. 32, line 614 ff.). We have further addressed the mechanism of action in response to Reviewer #4 Comment 3.
# Did they test if (OEG2)2-IP4 compound alone stabilized supersaturated Ca and Pi solutions by forming colloids akin to CPP? […]
# and phosphate and formation of hydroxyapatite with the assay from Heiss, A. et al.5. In brief, compound, 10 mM calcium solution and 6 mM phosphate solution in Hepes buffered saline (pH 7.4, RT) were incubated for 90 min at 37 °C and centrifuged at 8 000 x g for 5 min. The recovered pellet was dissolved in 1% (v/v) acetic acid and the calcium content quantified […]. (OEG2)2-IP4 alone stabilized supersaturated calcium and phosphate in […]
# CPP1s (Rh < 100 nm) were detected by dynamic light scattering. […]
# synergistic effect of (OEG2)2-IP4 with endogenous calcification inhibitors, such as fetuin-A in […]
# that are not physiological (no serum), we prefer not to include these additional data in the […]
# [4] = Supl.Fig.4 panel b, time 1 (unit not given)
structure (smiles),measurement,setting,value
"COCCOCCO[C@@H]1[C@@H](OP(=O)(O)O)[C@H](OCCOCCOC)[C@@H](OP(=O)(O)O)[C@@H](OP(=O)(O)O)[C@H]1OP(=O)(O)O [(OEG2)2-IP4, 4,6-Di-O-(methoxy-diethyleneglycol)-myo-inositol-1,2,3,5-tetrakis(phosphate)]",CPP particle growth (DLS),[1]; added to CPP1s at a final concentration of 30 µM,stabilized particle growth
same,Clobs,[2],7.6 ± 0.5 mL/min/kg
same,fold increase in plasmatic t1/2 vs IP6,[2]; 10 mg/kg i.v. bolus,~10 fold
same,plasma concentration,"[2]; 5 min, individual rats Fig. 4a, unit not printed (µM per Fig. 4b), listed as INS-3001",41.12 and 47.02 and 66.21
same,plasma concentration,"[2]; 15 min, unit not given, listed as INS-3001",26.41 and 24.63 and 34.38
same,plasma concentration,"[2]; 30 min, unit not given, listed as INS-3001",14.11 and 13.26 and 19.44
same,plasma concentration,"[2]; 60 min, unit not given, listed as INS-3001",5.04 and 6 and 6.96
same,plasma concentration,"[2]; 90 min, unit not given, listed as INS-3001",2.07 and 1.64 and 1.72
same,plasma concentration,"[2]; 240 min, unit not given, listed as INS-3001",0.15 and 0.13
same,plasma concentration,"[2]; 360 min, unit not given, listed as INS-3001",0.06 and 0.04 and 0.08
same,half-life,"[2]; in vivo, 10 mg/kg i.v. bolus",78 ± 32 min
same,Cmax,[2]; in vivo,52 ± 13 µM
same,Vd,"[2]; in vivo, 10 mg/kg i.v. bolus",0.234 ± 0.032 L/kg
same,AUC(0-t),"[2]; in vivo, t = 360 min",26.1 µM·h
same,MRT,[2]; in vivo,30 min
same,"precipitate formation, serum-free",[3]; 1 mM,no precipitate formed
same,"inhibition of calcium phosphate precipitation, serum-free",[3],stabilized supersaturated calcium and phosphate in solution dose dependently
"O=P(O)(O)O[C@H]1[C@H](OP(=O)(O)O)[C@@H](OP(=O)(O)O)[C@H](OP(=O)(O)O)[C@@H](OP(=O)(O)O)[C@H]1OP(=O)(O)O [IP6, myo-Inositol hexakisphosphate]",Dh,[1]; [4],88.6 and 105.8 and 120.4
same,PDI,[1]; [4],0.387 and 0.354 and 0.351
same,Dh,"[1]; Supl.Fig.4 panel b, time 3",117.9 and 117.1 and 132.1
same,PDI,"[1]; Supl.Fig.4 panel b, time 3",0.358 and 0.359
same,Dh,"[1]; Supl.Fig.4 panel b, time 5",120.1 and 126.7 and 139.4
same,PDI,"[1]; Supl.Fig.4 panel b, time 5",0.352 and 0.371 and 0.353
same,Dh,"[1]; Supl.Fig.4 panel d, time 1",134.2 and 137.5 and 124.1
same,PDI,"[1]; Supl.Fig.4 panel d, time 1",0.243 and 0.215 and 0.244
same,PDI,"[1]; Supl.Fig.4 panel d, time 3",0.263 and 0.405 and 0.247
same,Dh,"[1]; Supl.Fig.4 panel d, time 5",829.4 and 949 and 968.9
same,PDI,"[1]; Supl.Fig.4 panel d, time 5",0.375 and 0.401 and 0.371
same,Dh,"[1]; Supl.Fig.4 panel e, time 1",121.9 and 131.6 and 127.5
same,PDI,"[1]; Supl.Fig.4 panel e, time 1",0.239 and 0.253 and 0.225
same,Dh,"[1]; Supl.Fig.4 panel e, time 3",917.4 and 1163.2 and 967.1
same,PDI,"[1]; Supl.Fig.4 panel e, time 3",0.279 and 0.365 and 0.211
same,Dh,"[1]; Supl.Fig.4 panel e, time 5",1239.9 and 912.5 and 1030.4
same,PDI,"[1]; Supl.Fig.4 panel e, time 5",0.335 and 0.413 and 0.307
same,Dh,"[1]; Supl.Fig.4 panel f, time 1",151.1 and 134.7 and 128.6
same,PDI,"[1]; Supl.Fig.4 panel f, time 1",0.231 and 0.246 and 0.242
same,Dh,"[1]; Supl.Fig.4 panel f, time 3",1215.5 and 1246.8 and 894.9
same,Dh,"[1]; Supl.Fig.4 panel f, time 5",938.5 and 1174.7 and 1102.1
same,PDI,"[1]; Supl.Fig.4 panel f, time 5",0.341 and 0.349 and 0.237
same,Dh,"[1]; Supl.Fig.4 panel g, time 1",161.6 and 144.6 and 111.2
same,PDI,"[1]; Supl.Fig.4 panel g, time 1",0.205 and 0.233 and 0.237
same,PDI,"[1]; Supl.Fig.4 panel g, time 3",0.21 and 0.2 and 0.256
same,PDI,"[1]; Supl.Fig.4 panel g, time 5",0.256 and 0.391 and 0.263
same,Dh,"[1]; Supl.Fig.4 panel h, time 1",140.9 and 155.6 and 124.7
same,PDI,"[1]; Supl.Fig.4 panel h, time 1",0.242 and 0.211 and 0.261
same,PDI,"[1]; Supl.Fig.4 panel h, time 3",0.224 and 0.271 and 0.403
same,Dh,"[1]; Supl.Fig.4 panel h, time 5",698.6 and 1132.6 and 867.3
same,PDI,"[1]; Supl.Fig.4 panel h, time 5",0.295 and 0.332 and 0.35
same,Dh,"[1]; Supl.Fig.4 panel i, time 1",144.5 and 156.7 and 136.9
same,PDI,"[1]; Supl.Fig.4 panel i, time 1",0.23 and 0.222 and 0.25
same,Dh,"[1]; Supl.Fig.4 panel i, time 3",161.1 and 174.2 and 140.3
same,PDI,"[1]; Supl.Fig.4 panel i, time 3",0.256 and 0.273 and 0.247
same,Dh,"[1]; Supl.Fig.4 panel i, time 5",832.1 and 1065.7 and 818.8
same,PDI,"[1]; Supl.Fig.4 panel i, time 5",0.38 and 0.379 and 0.375
same,Clobs,[2],68.5 ± 21.2 mL/min/kg
same,plasma concentration,"[2]; 5 min, individual rats Fig. 4a, unit not printed (µM per Fig. 4b)",13.9 and 17.5 and 6.9 and 6.5 and 5.5 and 5.1
same,half-life,"[2]; plasma, 10 mg/kg i.v. bolus",8 ± 2 min
same,Cmax,[2]; plasma,13 ± 6 µM
same,Vd,"[2]; plasma, 10 mg/kg i.v. bolus",0.958 ± 0.405 L/kg
same,AUC(0-t),"[2]; plasma, t = 30 min",3.77 µM·h
same,MRT,[2]; plasma,14 min
same,"inhibition of calcium phosphate precipitation, serum-free",[3],barely effective
